Experiment in all cases: NCI tumour cell line growth inhibition, 48 h
Assay [1] has as its system MOLT-4.
The subject of assay [2] is SK-MEL-5.
Assay [3] has as its system LOX IMVI.
The test system of assay [4] is HCC 2998.
In assay [5] the test system is HOP-62.
The test system of assay [6] is UACC-257.
Assay [7] relates to SN12C.
Assay [8] concerns SF-268.
The test system of assay [9] is HCT-116.
In assay [10] the test system is SW-620.
Assay [11] has as its system COLO 205.
Assay [12] relates to HCT-15.
Assay [13] concerns HL-60.
Assay [14] concerns IGROV-1.
Assay [15] relates to NCI-H522.
Assay [16] has as its system RPMI-8226.
In assay [17] the test system is CCRF-CEM.
The test system of assay [18] is UACC-62.
Assay [19] relates to CAKI-1.

SMILES strings stand for the structures.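 Exposure lasted 48 hours, with cells grown in 96-well plates and compounds tested at five concentrations. The concentration for 50% growth inhibition is given as GI50.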 Calls of active or inactive are those of the source. Cut-off read from the data, not from the text of the source: active = GI50 up to about 1.1 µM and inactive = higher.

These results are taken from ChEMBL document CHEMBL1201862, “PubChem BioAssay data set” (2004).

As for `O=P(CCOc1ccccc1OCCP(=O)(c1ccccc1)c1ccc2c(c1)OCCOCCOCCOCCO2)(c1ccccc1)c1ccc2c(c1)OCCOCCOCCOCCO2` (stereo not given), the GI50 in assay [1], in assay [2], in [3], in assay [4], in assay [5] and in assay [6] was > 100 µM (inactive) in each case. The GI50 is > 100 µM (inactive) in assay [7]; > 100 µM (inactive) in assay [8]; > 100 µM (inactive) in assay [9]; > 100 µM (inactive) in assay [10]; > 100 µM (inactive) in [11]; above 100 µM in assay [12]. For the same compound, the GI50 in assay [13], in [14], in assay [15], in assay [16], in assay [17] and in assay [18] was > 100 µM (inactive) each time.
With `CC(C)(C)[Si](OC1CCOC1=O)(c1ccccc1)c1ccccc1` (stereo not given), the GI50 in assay [1] was 17.5 µM (inactive); in assay [2] it was 13.4 µM (inactive); in [3] it was 15.5 µM (inactive); in assay [4], 18.9 µM (inactive); in assay [6], 17.1 µM (inactive); in assay [7], 17.1 µM (inactive). For the same compound, the GI50 in assay [8] is 23 µM (inactive); in assay [9] it was 13.6 µM (inactive); in assay [10], 26.5 µM (inactive); in [11], > 10 µM (inactive); in assay [12], 18.5 µM; in assay [13], 14.4 µM (inactive). Further, the GI50 in assay [14] was 15.7 µM (inactive); in [15], 13.8 µM (inactive); in [16], 29 µM (inactive); in [17], 25.6 µM (inactive); in assay [18], 13.9 µM (inactive).
As for `CC(C(=O)n1nnc2ccccc21)N(c1ccccc1)c1ccccc1` (stereo not given), the GI50 in assay [1] is 99.5 µM (inactive); in [2] it was 42.9 µM (inactive); in assay [19], > 100 µM (inactive); in assay [3], 76.6 µM (inactive); in assay [4], > 100 µM (inactive); in [5] it was > 100 µM (inactive). The GI50 in assay [6] is 72.4 µM (inactive); in assay [7], > 100 µM (inactive); in [8], > 100 µM (inactive); in assay [9], 89.5 µM (inactive); in [10], > 100 µM (inactive); in assay [11], > 100 µM (inactive). Besides, the GI50 was above 100 µM in [12]; 45.1 µM (inactive) in assay [13]; > 100 µM (inactive) in [14]; 45.5 µM (inactive) in [15]; 52.7 µM (inactive) in [16]; 83.4 µM (inactive) in assay [17]. The GI50 in [18] was > 100 µM (inactive).
In the case of `NS(=O)(=O)c1cc2c(cc1Cl)NC(C(=O)NNC(=O)c1ccncc1)=NS2(=O)=O`, the GI50 in assay [1], in [2], in [19], in [3], in assay [4] and in assay [5] was > 100 µM (inactive) in each case. Moreover, the GI50 in assay [6], in assay [7], in [8], in assay [9], in assay [10] and in [11] was > 100 µM (inactive) throughout. Besides, the GI50 in assay [12] was above 100 µM; in [13] it was > 100 µM (inactive); in assay [14] it was > 100 µM (inactive); in assay [15] it was > 100 µM (inactive); in assay [17] it was > 100 µM (inactive); in [18] it was > 100 µM (inactive).
For `NC(=S)N/N=C1\CC(c2ccccc2)Nc2ccccc21` (stereo not given), the GI50 in assay [1] is 22.6 µM (inactive); in assay [2], 19.5 µM (inactive); in assay [19], 66.7 µM (inactive); in assay [3], 34.2 µM (inactive); in [7] it was 48.1 µM (inactive); in assay [8] it was 40.1 µM (inactive). The GI50 in [10] was 30.7 µM (inactive); in assay [11], 28.1 µM (inactive); in assay [12] it was 28.6 µM; in assay [13], 11 µM (inactive); in assay [14], 42.7 µM (inactive); in [15], 25.2 µM (inactive). Further, the GI50 in assay [16] was 27.1 µM (inactive); in assay [17], 29.6 µM (inactive); in [18], 34.3 µM (inactive).
In the case of `CC[C@@H]1C[C@@H]2CN3CCc4c([nH]c5ccc(OC)cc45)C(COC(=O)c4ccc(OC)c(OC)c4)(C2)C13`, the GI50 in [1] is 11.4 µM (inactive); in assay [19], 19.5 µM (inactive); in assay [3] it was 12.7 µM (inactive); in [4], 20.3 µM (inactive); in [5] it was 22.9 µM (inactive); in [6] it was 18.3 µM (inactive). Also, the GI50 in assay [7] is 17.4 µM (inactive); in assay [8], 33 µM (inactive); in assay [9], 4.34 µM (inactive); in [10], 14.6 µM (inactive); in assay [11], 21.2 µM (inactive); in [12], 18.4 µM. In addition, the GI50 is 14.5 µM (inactive) in assay [13]; 20.2 µM (inactive) in assay [14]; 16.1 µM (inactive) in assay [16]; 14.3 µM (inactive) in [17]; 13.7 µM (inactive) in assay [18].
Turning to `CON(C)C(=O)C(Cc1ccccc1)NC(=O)OCc1ccccc1` (stereo not given), the GI50 in [1] is > 100 µM (inactive); in [2], 97.7 µM (inactive); in assay [19], > 100 µM (inactive); in assay [4], > 100 µM (inactive); in [5] it was > 100 µM (inactive); in [6], 86.1 µM (inactive). Further, the GI50 in assay [7] is > 100 µM (inactive); in assay [8] it was > 100 µM (inactive); in [9] it was > 100 µM (inactive); in assay [10] it was > 100 µM (inactive); in assay [11], > 100 µM (inactive); in [12], above 100 µM. The GI50 in [13] was > 100 µM (inactive); in assay [14], > 100 µM (inactive); in assay [15] it was 58.6 µM (inactive); in assay [16], > 100 µM (inactive); in [17], > 100 µM (inactive); in assay [18], > 100 µM (inactive).
Regarding `NC(=O)c1csc(C2O[C@@H](COP(=O)(O)OP(=O)(O)OC[C@H]3OC(n4cnc5c(N)ncnc54)[C@H](O)[C@@H]3O)[C@H](O)[C@@H]2O)n1` (stereo not given in full), the GI50 is 59.2 µM (inactive) in assay [1]; > 100 µM (inactive) in [2]; 97.9 µM (inactive) in assay [19]; 54.5 µM (inactive) in assay [3]; > 100 µM (inactive) in assay [4]; > 100 µM (inactive) in assay [5]. The GI50 is 66.8 µM (inactive) in assay [6]; > 100 µM (inactive) in [7]; 64 µM (inactive) in assay [8]; > 100 µM (inactive) in assay [10]; > 100 µM (inactive) in [11]; above 100 µM in assay [12]. Also, the GI50 is 67.3 µM (inactive) in assay [13]; > 100 µM (inactive) in [14]; 52.8 µM (inactive) in [15]; 65.2 µM (inactive) in assay [16]; > 100 µM (inactive) in [17]; 72.1 µM (inactive) in [18].
